Laboratory results published in publication PMC6271085, “Synthesis and Cytotoxic Evaluation of a Series of 2-Amino-Naphthoquinones against Human Cancer Cells” (Molecules, 2014).
In brackets after ≈: the same amount, converted by molar mass. Several values for one entry are separate records, joined by “and”; a condition that tells them apart may be missing. Identical values can stand only once. Like-named read-outs stand apart in the source and are kept apart here.

Legend:
[1] = system: HCT-8 (colon) cells; experiment: MTT cytotoxicity assay, HCT-8; assay type: cell-based; conditions: Homo sapiens; for inhibition at 5 µg/mL: HCT-8, 5 µg/mL, 72 h, MTT, read-out: Percentage of inhibition of cell growth (GI%), average; for IC50: HCT-8, 72 h, HCT-8, 72h exposure
Text: (§1) This experiment evaluated the cytotoxicity of aminonaphthoquinones (ANPQs) against human cancer cells, in vitro. This analysis is part of an initial screening for determination of the potential antitumor of these samples. The human cancer cell strains used were SF-295 (glioblastoma-human), MDAMB-435 (melanoma), HCT-8 (colon), HCT-116 (colon), HL-60 (leukemia), OVCAR-8 (ovarian cancer), NCI-H358M (human bronchoalveolar lung carcinoma) and PC3-M (highly metastatic prostate cancer cell line). All cancer cells were provided by the National Cancer Institute (Rockville, MD, USA) and were cultured in RPMI 1640 supplemented with 10% fetal bovine serum and 1% antibiotics, maintained at 37 °C and atmosphere containing 5% CO2. The peripheral blood mononuclear cells (PBMC) were isolated by gradient of density (Ficoll-Hypaque) and cultivated in RPMI 1640 medium, supplemented with bovine foetal serum (20%), antibiotic (1%) and phytohemagglutinin (4%). The cells were maintained at 37 °C and atmosphere containing 5% CO2.
(§2) The different samples of ANPQs were diluted in pure sterile DMSO. The substances were tested at a concentration of 5 µg·mL^−1. In order to determine the IC50 the substances were tested at increasing concentrations in serial dilutions (5–0.010 µg·mL^−1).
(§3) Analysis of cytotoxicity by the MTT method has been used in the screening program at the National Cancer Institute of the United States (NCI), which tests over 10,000 samples per year. It is a rapid, sensitive and inexpensive test. It was first described by Mosman as having the ability to analyze the viability and the metabolic state of cells. It is a colorimetric analysis based on conversion of the salt 3-(4,5-dimethyl-2-thiazole)-2,5-diphenyl-2H-tetrazolium bromide (MTT) to formazan-blue by the mitochondrial enzymes found only in metabolically active cells. The study of the cytotoxicity by MTT method allows easily defining the cytotoxicity but not the mechanism of action.
(§4) The cells were plated at a concentration of 0.1 × 10^6 cell mL^−1 to OVCAR-8, NCI-H358M, PC3-M, SF-295 and MDA-MB435 strains, 0.7 × 10^5 cell mL^−1 to HCT-8 and HCT-116 strains, 0.3 × 10^6 to HL-60 strain, 1.0 × 10^6 cell mL^−1 to PBMC. The plates were incubated for 72 h at 5% CO2 at 37 °C. After, they were centrifuged and the supernatant removed. Then the solution of MTT (tetrazolium salt, 150 µL) was added, and the plates were incubated for 3 h. The absorbance was read after dissolving the precipitate with 150 µL of pure DMSO in a spectrophotometer plate at 595 nm.

[2] = system: MDAMB-435 cells; experiment: MTT cytotoxicity assay, MDAMB-435; assay type: cell-based; conditions: Homo sapiens; for inhibition at 5 µg/mL: MDA-MB-435, MDAMB-435, 5 µg/mL, 72 h, MTT, read-out: Percentage of inhibition of cell growth (GI%), average; for IC50: MDA-MB-435, 72 h, MDAMB-435, 72h exposure
Text: as §1, §2, §3, §4

[3] = system: SF-295 (glioblastoma) cells; experiment: MTT cytotoxicity assay, SF-295; assay type: cell-based; conditions: Homo sapiens; for inhibition at 5 µg/mL: SF-295, 5 µg/mL, 72 h, MTT, read-out: Percentage of inhibition of cell growth (GI%), average; for IC50: SF-295, 72 h, SF-295, 72h exposure
Text: as §1, §2, §3, §4

[4] = system: HCT-8 (colon) cells; parameters: method as in PMID 16042338; conditions: cited from earlier work
[5] = system: HL-60 (leukemia) cells; parameters: method as in PMID 16042338; conditions: cited from earlier work
[6] = system: HL-60 (leukemia) cells; experiment: MTT cytotoxicity assay, HL-60; assay type: cell-based; conditions: Homo sapiens; HL-60, 72h exposure
Text: as §1, §2, §3, §4

[7] = system: HCT-116 (colon) cells; experiment: MTT cytotoxicity assay, HCT-116; assay type: cell-based; conditions: Homo sapiens; HCT-116, 72h exposure
Text: as §1, §2, §3, §4

[8] = system: OVCAR-8 (ovarian cancer) cells; experiment: MTT cytotoxicity assay, OVCAR-8; assay type: cell-based; conditions: Homo sapiens; OVCAR-8, 72h exposure
Text: as §1, §2, §3, §4

[9] = system: NCI-H358M (bronchoalveolar lung carcinoma) cells; experiment: MTT cytotoxicity assay, NCI-H358M; assay type: cell-based; conditions: Homo sapiens, 72h exposure
Text: as §1, §2, §3, §4

[10] = system: PC3-M (prostate) cells; experiment: MTT cytotoxicity assay, PC3-M; assay type: cell-based; conditions: Homo sapiens, PC-3M, 72 h, 72h exposure
Text: as §1, §2, §3, §4

[11] = MTT cytotoxicity assay, PBMC; assay type: cell-based; conditions: peripheral blood mononuclear cells (PBMC); PBMC normal cells, 72h exposure
Text: as §1, §2, §3, §4

CCOC(=O)CCCNC1=CC(=O)c2ccccc2C1=O [compound 10, Ethyl 4-(1,4-dioxo-1,4-dihydronaphthalen-2-ylamino)butanoate]
inhibition at 5 µg/mL [1]: 49.6% | inhibition at 5 µg/mL [2]: 59.1% | inhibition at 5 µg/mL [3]: 49.2%

Cc1cc(=O)c2c(O)c([C@@H]3O[C@H](CO)[C@@H](O)[C@H](O)[C@H]3O)c(O)cc2o1 [biflorin]
IC50 [4]: 0.88 µg/mL (≈ 2.48 µM) | IC50 [5]: 1950 nM

CCOC(=O)[C@H](C)NC1=CC(=O)c2ccccc2C1=O [compound 9, Ethyl [(S) 2-(1,4-dioxo-1,4-dihydronaphthalen-2-ylamino)] propanoate]
IC50 [1]: 1.33 µg/mL and 4.86 µM | inhibition at 5 µg/mL [1]: 75.4% | IC50 [2]: 1.18 µg/mL and 4.31 µM | inhibition at 5 µg/mL [2]: 100% | IC50 [3]: 1.68 µg/mL and 6.13 µM | inhibition at 5 µg/mL [3]: 75.1% | IC50 [6]: 1.74 µg/mL and 6.35 µM | IC50 [7]: 3.11 µg/mL and 11.4 µM | IC50 [8]: 1.88 µg/mL and 6.87 µM | IC50 [9]: 0.98 µg/mL and 3.58 µM | IC50 [10]: 2.62 µg/mL and 9.57 µM | IC50 at 72 h [11]: 17.6 µg/mL and 64.3 µM | melting point: 65 to 68 °C

O=C(O)CNC1=CC(=O)c2ccccc2C1=O [compound 2, 2N-(1,4-Dioxo-1,4-dihydronaphthalen-2-yl)acetic acid]
IC50 [1]: 0.89 µg/mL and 3.84 µM | inhibition at 5 µg/mL [1]: 81.7% | IC50 [2]: 1.21 µg/mL and 5.23 µM | inhibition at 5 µg/mL [2]: 100% | IC50 [3]: 0.57 µg/mL and 2.46 µM | inhibition at 5 µg/mL [3]: 81.1% | IC50 [6]: 0.7 µg/mL and 3.02 µM | IC50 [7]: 1.31 µg/mL and 5.66 µM | IC50 [8]: 3.89 µg/mL and 16.8 µM | IC50 [9]: > 5 µg/mL and > 21.6 µM | IC50 [10]: > 5 µg/mL and > 21.6 µM | IC50 at 72 h [11]: 5.51 µg/mL and 23.8 µM

O=C(O)CCNC1=CC(=O)c2ccccc2C1=O [compound 3, 3N-(1,4-Dioxo-1,4-dihydronaphthalen-2-yl)propanoic acid]
inhibition at 5 µg/mL [1]: 56% | inhibition at 5 µg/mL [2]: 26.4% | inhibition at 5 µg/mL [3]: 56% | melting point: 198 to 200 °C

CCOC(=O)CCNC1=CC(=O)c2ccccc2C1=O [compound 8, Ethyl 3N-(1,4-dioxo-1,4-dihydronaphthalen-2-yl)propanoate]
inhibition at 5 µg/mL [1]: 28.2% | inhibition at 5 µg/mL [2]: 11.7% | inhibition at 5 µg/mL [3]: 32.7% | melting point: 120 to 122 °C

O=C(O)CCCNC1=CC(=O)c2ccccc2C1=O [compound 11, 4-(1,4-Dioxo-1,4-dihydronaphthalen-2-ylamino)butanoic acid]
inhibition at 5 µg/mL [1]: 61.4% | inhibition at 5 µg/mL [2]: 11.1% | inhibition at 5 µg/mL [3]: 61.2%

C[C@H](NC1=CC(=O)c2ccccc2C1=O)C(=O)O [compound 5, N-(1,4-Dioxo-1,4-dihydronaphthalen-2-yl)-L-alanine]
IC50 [1]: 3380 nM | inhibition at 5 µg/mL [1]: 84.1% | IC50 [2]: 1990 nM | inhibition at 5 µg/mL [2]: 100% | IC50 [3]: 2560 nM | inhibition at 5 µg/mL [3]: 83.8% | IC50 [6]: 1.05 µg/mL and 4.27 µM | IC50 [7]: 1.11 µg/mL and 4.52 µM | IC50 [8]: 2.36 µg/mL and 9.61 µM | IC50 [9]: 0.9 µg/mL and 3.36 µM | IC50 [10]: 1.61 µg/mL (≈ 6.57 µM) | IC50 at 72 h [11]: 7.34 µg/mL and 29.9 µM

COc1cccc2c1C(=O)c1c(O)c3c(c(O)c1C2=O)C[C@@](O)(C(=O)CO)C[C@@H]3O[C@H]1C[C@H](N)[C@H](O)[C@H](C)O1 [Dox, Doxorubicin, reference compound]
IC50 [1]: 0.07 µg/mL and 130 nM | IC50 [2]: 0.48 µg/mL and 830 nM | IC50 [3]: 0.23 µg/mL | IC50 [6]: 0.02 µg/mL and 30 nM | IC50 [7]: 0.01 µg/mL and 20 nM | IC50 [8]: 0.26 µg/mL (≈ 0.478 µM) | IC50 [9]: 0.9 µg/mL and 1.65 µM | IC50 [10]: 0.2 µg/mL and 360 nM | IC50 at 72 h [11]: 0.23 µg/mL and 420 nM

O=C1C=C(N2CCC[C@H]2C(=O)O)C(=O)c2ccccc21 [compound 4, N-(1,4-Dioxo-1,4-dihydronaphthalen-2-yl)-L-proline]
inhibition at 5 µg/mL [1]: 59.1% | inhibition at 5 µg/mL [2]: 36.7% | inhibition at 5 µg/mL [3]: 59.3% | melting point: 164 to 167 °C (dec.)

CCOC(=O)CNC1=CC(=O)c2ccccc2C1=O [compound 7, Ethyl 2N-(1,4-dioxo-1,4-dihydronaphthalen-2-yl)acetate]
IC50 [1]: 1.84 µg/mL and 7.09 µM | inhibition at 5 µg/mL [1]: 99.5% | IC50 [2]: 1.33 µg/mL and 5.12 µM | inhibition at 5 µg/mL [2]: 100% | IC50 [3]: 0.83 µg/mL and 3.19 µM | inhibition at 5 µg/mL [3]: 99.5% | IC50 [6]: 1.24 µg/mL and 4.77 µM | IC50 [7]: 2.13 µg/mL and 8.2 µM | IC50 [8]: 2 µg/mL and 7.7 µM | IC50 [9]: 0.64 µg/mL and 2.46 µM | IC50 [10]: 1.63 µg/mL and 6.28 µM | IC50 at 72 h [11]: 9 µg/mL and 34.7 µM | melting point: 93 to 95 °C

O=C1C=C(N[C@@H](Cc2ccccc2)C(=O)O)C(=O)c2ccccc21 [compound 6, N-(1,4-Dioxo-1,4-dihydronaphthalen-2-yl)-L-phenylalanine]
IC50 [1]: 1.59 µg/mL and 4.94 µM | inhibition at 5 µg/mL [1]: 86.1% | IC50 [2]: 1.46 µg/mL and 4.53 µM | inhibition at 5 µg/mL [2]: 100% | IC50 [3]: 0.65 µg/mL and 2.01 µM | inhibition at 5 µg/mL [3]: 86.1% | IC50 [6]: 1.31 µg/mL and 4.07 µM | IC50 [7]: 2.15 µg/mL and 6.67 µM | IC50 [8]: 1.87 µg/mL and 5.81 µM | IC50 [9]: 0.82 µg/mL and 2.54 µM | IC50 [10]: 1.7 µg/mL and 5.28 µM | IC50 at 72 h [11]: 12.2 µg/mL and 37.8 µM
